These results are taken from the kinase profiling compilation of Christmann-Franck et al. (2016).

The target of test [1] is CAMK2A (human) (UniProt Q9UQM7). Put plainly: SelectScreen, TR FRET. The conditions noted are these: compound 10.0 µM. On the technique in general: TR-FRET usually uses a lanthanide donor and a delayed reading to cut background.
Test [2] addresses GSK3B (human) (UniProt P49841). Put plainly: SelectScreen, TR FRET. The settings on record: compound 10.0 µM.
The target in test [3] is PLK1 (human) (UniProt P53350). Description: SelectScreen, TR FRET. The settings on record: compound 10.0 µM.
Test [4] deals with DYRK1B (human) (UniProt Q9Y463). Description: SelectScreen, TR FRET. The conditions noted are these: compound 10.0 µM.
Test [5] addresses RAF1 (human) (UniProt P04049). Description: SelectScreen, TR FRET. The conditions noted are these: compound 10.0 µM.
In test [6] the target is AKT1 (human) (UniProt P31749). Put plainly: SelectScreen, TR FRET. The conditions noted are these: compound 10.0 µM.
Test [7] deals with PLK2 (human) (UniProt Q9NYY3). Description: SelectScreen, TR FRET. The settings on record: compound 10.0 µM.
The target of test [8] is PRKACA (human) (UniProt P17612). Description: SelectScreen, TR FRET. The conditions noted are these: compound 10.0 µM.
For test [9], the target named is MAPK10 (human) (UniProt P53779). Description: SelectScreen, TR FRET. The conditions noted are these: compound 10.0 µM.
The target in test [10] is PLK3 (human) (UniProt Q9H4B4). Put plainly: SelectScreen, TR FRET. The conditions noted are these: compound 10.0 µM.
Test [11] deals with CDK1 CCNB1 (human) (UniProt P06493+P14635). Description: SelectScreen, TR FRET. The settings on record: compound 10.0 µM.
Test [12] has as its target PRKCB1 (human) (UniProt P05771). Description: SelectScreen, TR FRET. The conditions noted are these: compound 10.0 µM.
Test [13] deals with PIK3CA PIK3R1 (human) (UniProt P27986+P42336). Put plainly: SelectScreen, TR FRET. The settings on record: compound 10.0 µM.
For test [14], the target named is INSR (human) (UniProt P06213). Put plainly: SelectScreen, TR FRET. The conditions noted are these: compound 10.0 µM.
Test [15] concerns the target CDK5 CDK5R1 p25 (human) (UniProt Q15078+Q00535). Description: SelectScreen, TR FRET. The settings on record: compound 10.0 µM.
The target in test [16] is CLK1 (human) (UniProt P49759). Description: SelectScreen, TR FRET. The settings on record: compound 10.0 µM.
For test [17], the target named is ERBB4 (human) (UniProt Q15303). Description: SelectScreen, TR FRET. The settings on record: compound 10.0 µM.
The target in test [18] is PDGFRA (human) (UniProt P16234). Put plainly: HTRF.
Test [19] has as its target CSF1R (human) (UniProt P07333). Put plainly: HTRF.
For test [20], the target named is LRRK2 (human), Q5S007 [G2019S]. Put plainly: HTRF.
In test [21] the target is LRRK2 (human) (UniProt Q5S007). Put plainly: HTRF.
Test [22] has as its target FLT3 (human) (UniProt P36888). Description: SelectScreen, TR FRET. The settings on record: compound 10.0 µM.
Test [23] has as its target MAP3K7 TAB1 (human) (UniProt Q15750+O43318). Description: SelectScreen, TR FRET. The settings on record: compound 10.0 µM.
Test [24] concerns the target MARK2 (human) (UniProt Q7KZI7). Description: SelectScreen, TR FRET. The conditions noted are these: compound 10.0 µM.
Test [25] deals with IRAK4 (human) (UniProt Q9NWZ3). Put plainly: SelectScreen, TR FRET. The conditions noted are these: compound 10.0 µM.
Test [26] deals with CDK2 CCNA2 (human) (UniProt P24941+P20248). Put plainly: SelectScreen, TR FRET. The conditions noted are these: compound 10.0 µM.
The target of test [27] is RIPK2 (human) (UniProt O43353). Description: SelectScreen, TR FRET. The settings on record: compound 10.0 µM.
Test [28] concerns the target PDGFRA (human) (UniProt P16234). Put plainly: SelectScreen, TR FRET. The conditions noted are these: compound 10.0 µM.
Test [29] concerns the target STK16 (human) (UniProt O75716). Put plainly: SelectScreen, TR FRET. The conditions noted are these: compound 10.0 µM.
Test [30] addresses PAK4 (human) (UniProt O96013). Put plainly: SelectScreen, TR FRET. The settings on record: compound 10.0 µM.
Test [31] deals with ABL1 (human) (UniProt P00519). Put plainly: SelectScreen, TR FRET. The conditions noted are these: compound 10.0 µM.
Test [32] addresses CSF1R (human) (UniProt P07333). Put plainly: SelectScreen, TR FRET. The conditions noted are these: compound 10.0 µM.
Test [33] addresses ROCK2 (human) (UniProt O75116). Description: SelectScreen, TR FRET. The conditions noted are these: compound 10.0 µM.
Test [34] deals with MAPK1 (human) (UniProt P28482). Put plainly: SelectScreen, TR FRET. The conditions noted are these: compound 10.0 µM.
The target of test [35] is PTK2B (human) (UniProt Q14289). Description: SelectScreen, TR FRET. The settings on record: compound 10.0 µM.
Test [36] addresses AURKA (human) (UniProt O14965). Put plainly: SelectScreen, TR FRET. The settings on record: compound 10.0 µM.
The target of test [37] is SYK (human) (UniProt P43405). Description: SelectScreen, TR FRET. The settings on record: compound 10.0 µM.
Test [38] deals with RET (human) (UniProt P07949). Description: SelectScreen, TR FRET. The settings on record: compound 10.0 µM.
Test [39] addresses LCK (human) (UniProt P06239). Put plainly: SelectScreen, TR FRET. The settings on record: compound 10.0 µM.
Test [40] has as its target JAK1 JH1 JH2 (human) (UniProt P23458). Put plainly: SelectScreen, TR FRET. The conditions noted are these: compound 10.0 µM.
The target of test [41] is STK3 (human) (UniProt Q13188). Put plainly: SelectScreen, TR FRET. The conditions noted are these: compound 10.0 µM.
Test [42] has as its target TTK (human) (UniProt P33981). Description: SelectScreen, TR FRET. The conditions noted are these: compound 10.0 µM.
The target of test [43] is LRRK2 (human) (UniProt Q5S007). Description: SelectScreen, TR FRET. The settings on record: compound 10.0 µM.
The target of test [44] is CHEK1 (human) (UniProt O14757). Put plainly: SelectScreen, TR FRET. The settings on record: compound 10.0 µM.

Chain of ERBB4 (human) (Q15303 whole entry, looked up): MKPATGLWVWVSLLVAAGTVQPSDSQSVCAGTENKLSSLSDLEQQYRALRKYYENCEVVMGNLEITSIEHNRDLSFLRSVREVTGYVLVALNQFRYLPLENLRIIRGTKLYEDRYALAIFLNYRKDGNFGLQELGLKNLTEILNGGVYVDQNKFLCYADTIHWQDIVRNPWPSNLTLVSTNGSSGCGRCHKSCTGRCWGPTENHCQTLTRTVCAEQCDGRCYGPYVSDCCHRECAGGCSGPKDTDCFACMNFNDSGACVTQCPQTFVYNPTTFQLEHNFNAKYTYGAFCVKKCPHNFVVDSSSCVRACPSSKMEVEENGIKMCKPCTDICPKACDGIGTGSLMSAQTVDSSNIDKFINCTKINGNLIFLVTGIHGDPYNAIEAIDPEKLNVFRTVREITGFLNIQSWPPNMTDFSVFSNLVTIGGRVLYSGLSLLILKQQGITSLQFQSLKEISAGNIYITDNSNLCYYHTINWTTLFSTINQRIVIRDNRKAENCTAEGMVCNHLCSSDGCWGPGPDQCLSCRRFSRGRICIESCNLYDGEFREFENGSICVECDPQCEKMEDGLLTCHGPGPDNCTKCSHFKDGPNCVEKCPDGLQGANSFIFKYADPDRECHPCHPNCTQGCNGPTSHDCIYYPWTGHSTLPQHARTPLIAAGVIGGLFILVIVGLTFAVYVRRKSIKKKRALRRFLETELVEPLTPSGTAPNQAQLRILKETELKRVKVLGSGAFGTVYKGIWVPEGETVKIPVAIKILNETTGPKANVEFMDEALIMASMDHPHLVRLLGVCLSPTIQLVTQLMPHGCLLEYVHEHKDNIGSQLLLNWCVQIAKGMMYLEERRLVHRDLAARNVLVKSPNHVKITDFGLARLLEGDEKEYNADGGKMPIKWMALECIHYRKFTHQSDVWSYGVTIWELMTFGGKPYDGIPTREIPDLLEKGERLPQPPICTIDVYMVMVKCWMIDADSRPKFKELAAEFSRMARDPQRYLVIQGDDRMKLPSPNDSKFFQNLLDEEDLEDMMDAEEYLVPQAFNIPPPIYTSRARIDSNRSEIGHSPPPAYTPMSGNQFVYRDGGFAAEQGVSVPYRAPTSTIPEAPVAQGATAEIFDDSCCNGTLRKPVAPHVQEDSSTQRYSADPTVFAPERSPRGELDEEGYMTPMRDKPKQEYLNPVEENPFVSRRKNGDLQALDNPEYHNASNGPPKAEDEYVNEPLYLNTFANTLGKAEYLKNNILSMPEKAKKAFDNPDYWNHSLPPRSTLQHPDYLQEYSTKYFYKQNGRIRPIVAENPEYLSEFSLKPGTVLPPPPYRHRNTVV
Chain of CAMK2A (human) (Q9UQM7 whole entry, looked up): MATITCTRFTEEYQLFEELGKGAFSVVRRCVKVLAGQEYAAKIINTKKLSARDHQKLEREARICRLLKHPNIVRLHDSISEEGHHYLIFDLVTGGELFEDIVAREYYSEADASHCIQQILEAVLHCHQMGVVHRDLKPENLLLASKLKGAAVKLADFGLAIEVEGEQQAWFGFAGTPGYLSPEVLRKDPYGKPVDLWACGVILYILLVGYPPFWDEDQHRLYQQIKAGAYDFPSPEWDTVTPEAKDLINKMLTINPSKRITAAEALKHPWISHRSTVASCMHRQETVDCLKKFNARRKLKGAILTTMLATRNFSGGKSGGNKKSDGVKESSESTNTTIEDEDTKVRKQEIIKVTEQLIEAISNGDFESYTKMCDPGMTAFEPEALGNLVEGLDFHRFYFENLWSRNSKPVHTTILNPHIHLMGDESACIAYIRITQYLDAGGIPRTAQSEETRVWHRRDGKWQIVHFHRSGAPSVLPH
Chain of RAF1 (human) (P04049 whole entry, looked up): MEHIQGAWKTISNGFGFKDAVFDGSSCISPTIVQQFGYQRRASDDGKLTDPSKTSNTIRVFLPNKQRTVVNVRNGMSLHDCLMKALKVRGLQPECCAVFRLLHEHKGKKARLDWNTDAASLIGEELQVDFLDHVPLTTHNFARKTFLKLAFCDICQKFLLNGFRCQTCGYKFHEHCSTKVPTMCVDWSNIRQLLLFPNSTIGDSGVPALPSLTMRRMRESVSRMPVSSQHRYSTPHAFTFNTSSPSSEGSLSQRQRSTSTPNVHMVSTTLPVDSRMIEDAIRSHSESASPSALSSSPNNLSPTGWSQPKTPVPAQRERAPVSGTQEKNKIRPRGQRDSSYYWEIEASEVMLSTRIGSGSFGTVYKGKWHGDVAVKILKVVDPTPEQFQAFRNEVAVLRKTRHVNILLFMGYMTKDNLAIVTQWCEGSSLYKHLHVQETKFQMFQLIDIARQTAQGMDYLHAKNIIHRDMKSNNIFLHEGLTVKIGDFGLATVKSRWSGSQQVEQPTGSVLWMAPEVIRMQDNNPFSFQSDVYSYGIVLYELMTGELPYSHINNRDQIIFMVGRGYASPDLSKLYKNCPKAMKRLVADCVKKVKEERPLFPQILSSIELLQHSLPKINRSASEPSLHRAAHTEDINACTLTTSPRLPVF
Chain of MAPK10 (human) (P53779 whole entry, looked up): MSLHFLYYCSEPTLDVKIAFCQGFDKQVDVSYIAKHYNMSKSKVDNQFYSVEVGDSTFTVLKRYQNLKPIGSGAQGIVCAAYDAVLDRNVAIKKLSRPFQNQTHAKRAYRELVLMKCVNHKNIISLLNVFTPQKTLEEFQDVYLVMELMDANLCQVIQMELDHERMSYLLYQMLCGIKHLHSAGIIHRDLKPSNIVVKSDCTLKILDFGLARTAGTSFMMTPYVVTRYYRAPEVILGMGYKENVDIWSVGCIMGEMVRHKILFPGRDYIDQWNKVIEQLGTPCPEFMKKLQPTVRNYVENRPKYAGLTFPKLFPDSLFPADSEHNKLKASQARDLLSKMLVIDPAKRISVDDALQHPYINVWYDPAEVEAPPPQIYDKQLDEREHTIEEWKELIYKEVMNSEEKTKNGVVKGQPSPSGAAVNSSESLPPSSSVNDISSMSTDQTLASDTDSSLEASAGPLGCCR
Chain of PIK3CA PIK3R1 (human) (P27986 whole entry, looked up): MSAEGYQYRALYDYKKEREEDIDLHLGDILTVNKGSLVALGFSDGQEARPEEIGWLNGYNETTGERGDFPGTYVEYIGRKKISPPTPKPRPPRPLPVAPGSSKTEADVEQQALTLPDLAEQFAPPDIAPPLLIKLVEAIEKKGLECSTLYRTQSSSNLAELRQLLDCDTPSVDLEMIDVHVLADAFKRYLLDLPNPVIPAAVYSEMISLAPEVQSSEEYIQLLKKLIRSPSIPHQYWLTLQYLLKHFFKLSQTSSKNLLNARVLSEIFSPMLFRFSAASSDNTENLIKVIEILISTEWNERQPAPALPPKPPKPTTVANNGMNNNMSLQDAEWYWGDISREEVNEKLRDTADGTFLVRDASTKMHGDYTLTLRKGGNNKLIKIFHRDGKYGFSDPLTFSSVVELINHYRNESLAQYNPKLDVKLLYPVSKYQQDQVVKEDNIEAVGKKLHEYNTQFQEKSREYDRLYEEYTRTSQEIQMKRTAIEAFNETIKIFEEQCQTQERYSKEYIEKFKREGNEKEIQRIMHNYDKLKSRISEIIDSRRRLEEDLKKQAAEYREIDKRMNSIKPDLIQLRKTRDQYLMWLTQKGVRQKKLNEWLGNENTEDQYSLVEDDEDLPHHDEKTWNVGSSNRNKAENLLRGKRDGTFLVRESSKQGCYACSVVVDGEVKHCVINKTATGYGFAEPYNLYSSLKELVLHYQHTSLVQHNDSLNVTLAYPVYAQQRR
Chain of PIK3CA PIK3R1 (human) (P42336 whole entry, looked up): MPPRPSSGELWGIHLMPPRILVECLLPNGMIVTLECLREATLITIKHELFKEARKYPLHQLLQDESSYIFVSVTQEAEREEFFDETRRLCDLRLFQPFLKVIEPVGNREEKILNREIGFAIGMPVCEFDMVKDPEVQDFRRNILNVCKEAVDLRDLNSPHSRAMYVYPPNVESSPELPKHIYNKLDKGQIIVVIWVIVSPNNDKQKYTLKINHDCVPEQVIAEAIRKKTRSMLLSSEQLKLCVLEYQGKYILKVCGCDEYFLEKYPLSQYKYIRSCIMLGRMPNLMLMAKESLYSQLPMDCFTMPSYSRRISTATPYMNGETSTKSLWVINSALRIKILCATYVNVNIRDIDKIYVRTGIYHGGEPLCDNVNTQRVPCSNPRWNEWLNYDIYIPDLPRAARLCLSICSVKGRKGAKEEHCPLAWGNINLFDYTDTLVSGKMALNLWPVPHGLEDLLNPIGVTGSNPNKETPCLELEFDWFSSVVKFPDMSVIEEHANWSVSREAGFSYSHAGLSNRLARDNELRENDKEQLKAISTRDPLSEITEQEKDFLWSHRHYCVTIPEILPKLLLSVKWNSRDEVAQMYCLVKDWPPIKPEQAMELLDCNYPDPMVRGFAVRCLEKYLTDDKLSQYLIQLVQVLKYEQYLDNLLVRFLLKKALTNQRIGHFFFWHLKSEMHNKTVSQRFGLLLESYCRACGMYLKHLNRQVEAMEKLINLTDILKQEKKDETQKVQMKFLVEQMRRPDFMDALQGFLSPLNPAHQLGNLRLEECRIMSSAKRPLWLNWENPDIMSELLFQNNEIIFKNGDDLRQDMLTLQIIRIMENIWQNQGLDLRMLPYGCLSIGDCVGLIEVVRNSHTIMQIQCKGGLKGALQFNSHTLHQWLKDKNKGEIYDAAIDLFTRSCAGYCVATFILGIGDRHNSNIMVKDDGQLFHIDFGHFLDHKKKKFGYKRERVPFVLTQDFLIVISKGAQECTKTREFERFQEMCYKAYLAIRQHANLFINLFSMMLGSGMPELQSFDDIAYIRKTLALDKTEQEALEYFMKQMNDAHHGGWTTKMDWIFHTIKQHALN
Chain of MAPK1 (human) (P28482 whole entry, looked up): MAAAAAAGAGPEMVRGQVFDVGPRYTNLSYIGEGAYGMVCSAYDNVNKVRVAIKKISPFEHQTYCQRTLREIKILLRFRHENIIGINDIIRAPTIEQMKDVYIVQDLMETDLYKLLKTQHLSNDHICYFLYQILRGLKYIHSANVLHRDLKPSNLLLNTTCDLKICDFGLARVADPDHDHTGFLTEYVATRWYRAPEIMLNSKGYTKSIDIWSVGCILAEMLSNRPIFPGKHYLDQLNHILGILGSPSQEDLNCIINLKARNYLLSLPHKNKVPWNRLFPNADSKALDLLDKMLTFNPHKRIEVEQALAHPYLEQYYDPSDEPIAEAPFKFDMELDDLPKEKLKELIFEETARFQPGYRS

For the molecule `CC(C)Nc1c(C(N)=O)cnc2cc(-c3ccc(S(C)(=O)=O)cc3)ccc12`, the inhibition (in general, the drop in the measured response relative to a control, in per cent) is -0.0898% in test [1]; 6.45% in test [2]; 0.631% in test [3]; 9.19% in test [4]; 16.7% in test [5]; 4.75% in test [6]. Further, the inhibition was determined as 7.12% in test [7]; 5.91% in test [8]; 4.17% in test [9]; 0.957% in [10]; 1.38% in test [11]; 8.27% in [12]. The inhibition in [13] is -1.65%; in test [14], 3.68%; in [15], 2.45%; in test [16] it was 1.75%.

In the case of `CC(C)Nc1c(C(N)=O)nnc2ccc(-c3ccncc3)cc12`, the inhibition in test [17] was found to be 20.6%; in [14], 13.3%.

On to `CC(C)Nc1c(C(N)=O)nnc2cc(-c3ccc(N4CCOCC4)cc3)ccc12`, for which the IC50 (as a rule, the concentration at which inhibition is half-maximal) stood at 262 nM in [18], 22 nM in test [19], 12 nM in test [20] and 9 nM in test [21]. The inhibition in [22] amounted to 98.9%; in test [23], 67.1%; in test [1], 17.4%; in test [24] it was 80.5%; in test [25], 17.5%; in [26], 5.12%. Also, the inhibition in test [2] amounted to 42.2%; in test [3], 3.31%; in [4] it was 6.79%; in test [5], 27%; in test [6], 1.33%; in [27], 44.4%. For the same molecule, the inhibition in [28] is 97.5%; in [29] it was 39.9%; in [30] it was 59.5%; in test [7], 5.59%; in test [31] it was 55.5%; in [8] it was -1.97%. The inhibition in test [32] was 97.3%; in test [33], 78%; in test [34], -5.26%; in test [35], 38.9%; in test [36], 80.8%; in test [9] it was 16.6%. Besides, the inhibition was 81.4% in test [37]; 82.8% in test [38]; -15.6% in test [10]; 74.7% in [39]; 14.7% in test [17]; 72.3% in [40]. Moreover, the inhibition in test [11] was 2.62%; in test [12], -0.227%; in [41], 41.9%; in test [42], 66.6%; in test [13], 15.2%; in test [14], -0.801%. Besides, the inhibition in test [15] stood at 3.19%; in test [43] it was 98.6%; in test [44], 93.2%; in [16], 4.04%.

As to `C[C@@H](Nc1c(C(N)=O)nnc2cc(-c3ccc(S(C)(=O)=O)cc3)ccc12)C1CC1`, the inhibition was 14.6% in test [1]; 0.691% in test [25]; -48.5% in test [26]; 28.6% in [2]; 1.06% in test [3]; 2.7% in test [4]. The inhibition is 21.3% in test [5]; 4.06% in test [6]; 28.4% in [27]; -47.1% in test [29]; 17.2% in [7]; -0.763% in test [8]. For the same molecule, the inhibition in [34] is -52.2%; in test [9], 20.5%; in test [10], 4.63%; in test [17], 11.7%; in [11], -2.77%; in test [12], 0.123%. For the same molecule, the inhibition in [13] was 9.68%; in test [14], 0.279%; in test [15], -16.4%; in [16], 5.47%.

As to `CC(C)Nc1c(C(N)=O)nnc2cc(-c3ccncc3)ccc12`, the inhibition in test [1] is 13.6%; in test [3] it was 33.4%; in test [6], 12.7%; in test [34], 22.7%; in test [10], -0.393%; in [17], 22.3%.

`CS(=O)(=O)c1ccc(-c2ccc3c(NC4CCC4)c(C(N)=O)nnc3c2)cc1`: the inhibition in test [1] was 10.5%; in test [25], -6.26%; in test [26], 2.69%; in test [3], 13.7%; in test [6], 4.88%; in test [7], 10.6%. Moreover, the inhibition in test [8] was 0.0814%; in [34], 2.96%; in [10], 9.8%; in test [17], 3.89%; in test [11], 7.35%; in test [12], -1.63%. Besides, the inhibition in test [13] is 1.77%; in test [14], 7.17%; in test [15] it was -0.613%; in test [16], 13.7%.
